Source: patent US12404295B2, “(Hetero)aryl-methyl-thio-beta-D-galactopyranoside derivatives” (Idorsia Pharmaceuticals Ltd, priority 2019, dated 2025)

What was measured:
human Gal-1 (hGal-1) = human Gal-1 (hGal-1) (Homo sapiens (Human), UniProt P09382); assay: competitive binding assay: biotinylated hGal-1 binding to microplate-adsorbed asialofetuin (ASF); conditions: Table 15; read-out: IC50 (Galectin-1 inhibition)
Method in brief: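 Biotinylated human Gal-1 (300-1000 ng/mL) competes with serially diluted compound for binding to ASF-coated plates, 3 h at 4° C. Bound protein detected with streptavidin-peroxidase and ABTS substrate (spectrophotometric). IC50 given as mean of several measurements.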

human Gal-3 (hGal-3) = human Gal-3 (hGal-3) (Homo sapiens (Human), UniProt P17931); assay: competitive binding assay: biotinylated hGal-3 binding to microplate-adsorbed asialofetuin (ASF); conditions: Gal-3 inhibition; binding of biotinylated hGal-3 to ASF; mean values; read-out: IC50
Sequence of human Gal-3 (hGal-3) (P17931 whole entry): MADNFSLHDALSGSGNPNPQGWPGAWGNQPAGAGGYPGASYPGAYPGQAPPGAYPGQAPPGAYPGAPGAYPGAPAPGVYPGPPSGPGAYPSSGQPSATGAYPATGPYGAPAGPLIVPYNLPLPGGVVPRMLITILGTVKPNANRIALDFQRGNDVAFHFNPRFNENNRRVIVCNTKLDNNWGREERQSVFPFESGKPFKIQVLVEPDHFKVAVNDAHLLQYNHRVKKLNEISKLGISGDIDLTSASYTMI
Method in brief: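 Compounds serially diluted in DMSO compete with asialofetuin for biotinylated human Gal-3; plates are incubated 3 h at 4 °C, washed, then treated 1 h at 4 °C with streptavidin-peroxidase (80 ng/mL) and developed with ABTS. IC50 values are means of several measurements.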

Sequence of human Gal-1 (hGal-1) (P09382 whole entry): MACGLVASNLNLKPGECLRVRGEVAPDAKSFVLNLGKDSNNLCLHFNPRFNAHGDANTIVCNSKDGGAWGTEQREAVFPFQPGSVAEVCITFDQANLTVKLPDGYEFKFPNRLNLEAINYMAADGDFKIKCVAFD

**Q.** Which IC50 (human Gal-1 (hGal-1)) does the source give for `Cc1ccncc1C(S[C@@H]1O[C@H](CO)[C@H](O)[C@H](n2cc(-c3cc(F)c(F)c(F)c3)nn2)[C@H]1O)C(C)(C)O` (stereo partly drawn) [Example 2.31.117., (2S,3R,4S,5R,6R)-2-((2-Hydroxy-2-methyl-1-(4-methylpyridin-3-yl)propyl)thio)-6-(hydroxymethyl)-4-(4-(3,4,5-trifluorophenyl)-1H-1,2,3-triazol-1-yl)tetrahydro-2H-pyran-3,5-diol] here?
**A.** The IC50 was 4950 nM.

**Q.** And the IC50 (human Gal-3 (hGal-3))?
**A.** The IC50 was 530 nM.

**Q.** How did the IC50 (human Gal-1 (hGal-1)) turn out when `CC(C)(O)[C@H](S[C@@H]1O[C@H](CO)[C@H](O)[C@H](n2cc(-c3cc(F)c(F)c(F)c3)nn2)[C@H]1O)c1cccnc1C(F)(F)F` [Example 2.31.118R., (2S,3R,4S,5R,6R)-2-(((R)-2-hydroxy-2-methyl-1-(2-(trifluoromethyl)pyridin-3-yl)propyl)thio)-6-(hydroxymethyl)-4-(4-(3,4,5-trifluorophenyl)-1H-1,2,3-triazol-1-yl)tetrahydro-2H-pyran-3,5-diol] was run?
**A.** Its IC50 is 640 nM.

**Q.** And the IC50 (human Gal-3 (hGal-3))?
**A.** Its IC50 is 210 nM.

**Q.** For `CC(C)(O)[C@@H](S[C@@H]1O[C@H](CO)[C@H](O)[C@H](n2cc(-c3cc(F)c(F)c(F)c3)nn2)[C@H]1O)c1cccnc1C(F)(F)F` [Example 2.31.118S., (2S,3R,4S,5R,6R)-2-(((S)-2-Hydroxy-2-methyl-1-(2-(trifluoromethyl)pyridin-3-yl)propyl)thio)-6-(hydroxymethyl)-4-(4-(3,4,5-trifluorophenyl)-1H-1,2,3-triazol-1-yl)tetrahydro-2H-pyran-3,5-diol], which IC50 (human Gal-1 (hGal-1)) is on record?
**A.** The IC50 was 8200 nM.

**Q.** And the IC50 (human Gal-3 (hGal-3))?
**A.** Its IC50 is 6210 nM.

**Q.** `Cc1nc(C)c(C(S[C@@H]2O[C@H](CO)[C@H](O)[C@H](n3cc(-c4cc(F)c(F)c(F)c4)nn3)[C@H]2O)C(C)(C)O)nc1C` (stereo partly drawn) [Example 2.31.119., (2S,3R,4S,5R,6R)-2-((2-Hydroxy-2-methyl-1-(3,5,6-trimethylpyrazin-2-yl)propyl)thio)-6-(hydroxymethyl)-4-(4-(3,4,5-trifluorophenyl)-1H-1,2,3-triazol-1-yl)tetrahydro-2H-pyran-3,5-diol] was tested. Which IC50 (human Gal-1 (hGal-1)) did it give?
**A.** The IC50 was 1750 nM.

**Q.** What about the IC50 (human Gal-3 (hGal-3)) of the same compound?
**A.** The IC50 was 230 nM.

**Q.** With `Cc1nc(C)c([C@@H](S[C@@H]2O[C@H](CO)[C@H](O)[C@H](n3cc(-c4cc(F)c(F)c(F)c4)nn3)[C@H]2O)C(C)(C)O)nc1C` [Example 2.31.119R., (2S,3R,4S,5R,6R)-2-(((R)-2-Hydroxy-2-methyl-1-(3,5,6-trimethylpyrazin-2-yl)propyl)thio)-6-(hydroxymethyl)-4-(4-(3,4,5-trifluorophenyl)-1H-1,2,3-triazol-1-yl)tetrahydro-2H-pyran-3,5-diol] as the compound, how does the IC50 (human Gal-1 (hGal-1)) read?
**A.** The IC50 was 1150 nM.

**Q.** What about the IC50 (human Gal-3 (hGal-3)) of the same compound?
**A.** The IC50 was 270 nM.

**Q.** Which IC50 (human Gal-1 (hGal-1)) does the source give for `Cc1nc(C)c([C@H](S[C@@H]2O[C@H](CO)[C@H](O)[C@H](n3cc(-c4cc(F)c(F)c(F)c4)nn3)[C@H]2O)C(C)(C)O)nc1C` [Example 2.31.119S., (2S,3R,4S,5R,6R)-2-(((S)-2-Hydroxy-2-methyl-1-(3,5,6-trimethylpyrazin-2-yl)propyl)thio)-6-(hydroxymethyl)-4-(4-(3,4,5-trifluorophenyl)-1H-1,2,3-triazol-1-yl)tetrahydro-2H-pyran-3,5-diol] here?
**A.** Its IC50 is 18400 nM.

**Q.** And the IC50 (human Gal-3 (hGal-3))?
**A.** Its IC50 is 2630 nM.

**Q.** What does the source list for `Cc1conc1C(S[C@@H]1O[C@H](CO)[C@H](O)[C@H](n2cc(-c3cc(F)c(F)c(F)c3)nn2)[C@H]1O)C(C)(C)O` (stereo partly drawn) [Example 2.31.120., (2S,3R,4S,5R,6R)-2-((2-Hydroxy-2-methyl-1-(4-methylisoxazol-3-yl)propyl)thio)-6-(hydroxymethyl)-4-(4-(3,4,5-trifluorophenyl)-1H-1,2,3-triazol-1-yl)tetrahydro-2H-pyran-3,5-diol]?
**A.** IC50 (human Gal-1 (hGal-1)): 3000 nM; IC50 (human Gal-3 (hGal-3)): 730 nM

**Q.** `Cc1conc1[C@@H](S[C@@H]1O[C@H](CO)[C@H](O)[C@H](n2cc(-c3cc(F)c(F)c(F)c3)nn2)[C@H]1O)C(C)(C)O` [Example 2.31.120R., (2S,3R,4S,5R,6R)-2-(((R)-2-Hydroxy-2-methyl-1-(4-methylisoxazol-3-yl)propyl)thio)-6-(hydroxymethyl)-4-(4-(3,4,5-trifluorophenyl)-1H-1,2,3-triazol-1-yl)tetrahydro-2H-pyran-3,5-diol] was tested. Which IC50 (human Gal-1 (hGal-1)) did it give?
**A.** Its IC50 is 1800 nM.

**Q.** What about the IC50 (human Gal-3 (hGal-3)) of the same compound?
**A.** The IC50 was 320 nM.

**Q.** What does the source list for `Cc1conc1[C@H](S[C@@H]1O[C@H](CO)[C@H](O)[C@H](n2cc(-c3cc(F)c(F)c(F)c3)nn2)[C@H]1O)C(C)(C)O` [Example 2.31.120S., (2S,3R,4S,5R,6R)-2-(((S)-2-Hydroxy-2-methyl-1-(4-methylisoxazol-3-yl)propyl)thio)-6-(hydroxymethyl)-4-(4-(3,4,5-trifluorophenyl)-1H-1,2,3-triazol-1-yl)tetrahydro-2H-pyran-3,5-diol]?
**A.** IC50 (human Gal-1 (hGal-1)): 61300 nM; IC50 (human Gal-3 (hGal-3)): 12400 nM

**Q.** With `Cc1noc(C)c1C(S[C@@H]1O[C@H](CO)[C@H](O)[C@H](n2cc(-c3cc(F)c(F)c(F)c3)nn2)[C@H]1O)C(C)(C)O` (stereo partly drawn) [Example 2.31.121., (2S,3R,4S,5R,6R)-2-((1-(3,5-Dimethylisoxazol-4-yl)-2-hydroxy-2-methylpropyl)thio)-6-(hydroxymethyl)-4-(4-(3,4,5-trifluorophenyl)-1H-1,2,3-triazol-1-yl)tetrahydro-2H-pyran-3,5-diol] as the compound, how does the IC50 (human Gal-1 (hGal-1)) read?
**A.** Its IC50 is 5030 nM.

**Q.** And the IC50 (human Gal-3 (hGal-3))?
**A.** The IC50 was 710 nM.

**Q.** `Cc1nc(C(S[C@@H]2O[C@H](CO)[C@H](O)[C@H](n3cc(-c4cc(F)c(F)c(F)c4)nn3)[C@H]2O)C(C)(C)O)c(C)o1` (stereo partly drawn) [Example 2.31.122., (2S,3R,4S,5R,6R)-2-((1-(2,5-Dimethyloxazol-4-yl)-2-hydroxy-2-methylpropyl)thio)-6-(hydroxymethyl)-4-(4-(3,4,5-trifluorophenyl)-1H-1,2,3-triazol-1-yl)tetrahydro-2H-pyran-3,5-diol] was tested. Which IC50 (human Gal-1 (hGal-1)) did it give?
**A.** Its IC50 is 2140 nM.

**Q.** And the IC50 (human Gal-3 (hGal-3))?
**A.** The IC50 was 880 nM.

**Q.** How did the IC50 (human Gal-1 (hGal-1)) turn out when `Cc1nc([C@@H](S[C@@H]2O[C@H](CO)[C@H](O)[C@H](n3cc(-c4cc(F)c(F)c(F)c4)nn3)[C@H]2O)C(C)(C)O)c(C)o1` [Example 2.31.122R., (2S,3R,4S,5R,6R)-2-(((R)-1-(2,5-Dimethyloxazol-4-yl)-2-hydroxy-2-methylpropyl)thio)-6-(hydroxymethyl)-4-(4-(3,4,5-trifluorophenyl)-1H-1,2,3-triazol-1-yl)tetrahydro-2H-pyran-3,5-diol] was run?
**A.** Its IC50 is 670 nM.

**Q.** And the IC50 (human Gal-3 (hGal-3))?
**A.** Its IC50 is 370 nM.

**Q.** For `Cc1nc([C@H](S[C@@H]2O[C@H](CO)[C@H](O)[C@H](n3cc(-c4cc(F)c(F)c(F)c4)nn3)[C@H]2O)C(C)(C)O)c(C)o1` [Example 2.31.122S., (2S,3R,4S,5R,6R)-2-(((S)-1-(2,5-dimethyloxazol-4-yl)-2-hydroxy-2-methylpropyl)thio)-6-(hydroxymethyl)-4-(4-(3,4,5-trifluorophenyl)-1H-1,2,3-triazol-1-yl)tetrahydro-2H-pyran-3,5-diol], which IC50 (human Gal-1 (hGal-1)) is on record?
**A.** The IC50 was 11200 nM.

**Q.** What about the IC50 (human Gal-3 (hGal-3)) of the same compound?
**A.** The IC50 was 4120 nM.

**Q.** How did the IC50 (human Gal-1 (hGal-1)) turn out when `Cc1cscc1C(S[C@@H]1O[C@H](CO)[C@H](O)[C@H](n2cc(-c3cc(F)c(F)c(F)c3)nn2)[C@H]1O)C(C)(C)O` (stereo partly drawn) [Example 2.31.124., (2S,3R,4S,5R,6R)-2-((2-Hydroxy-2-methyl-1-(4-methylthiophen-3-yl)propyl)thio)-6-(hydroxymethyl)-4-(4-(3,4,5-trifluorophenyl)-1H-1,2,3-triazol-1-yl)tetrahydro-2H-pyran-3,5-diol] was run?
**A.** Its IC50 is 5150 nM.

**Q.** And the IC50 (human Gal-3 (hGal-3))?
**A.** The IC50 was 500 nM.

**Q.** For `CCC(O)(CC)[C@H](S[C@@H]1O[C@H](CO)[C@H](O)[C@H](n2cc(-c3cc(F)c(F)c(F)c3)nn2)[C@H]1O)c1conc1C` [Example 2.32.120R., (2S,3R,4S,5R,6R)-2-(((R)-2-Ethyl-2-hydroxy-1-(3-methylisoxazol-4-yl)butyl)thio)-6-(hydroxymethyl)-4-(4-(3,4,5-trifluorophenyl)-1H-1,2,3-triazol-1-yl)tetrahydro-2H-pyran-3,5-diol], which IC50 (human Gal-1 (hGal-1)) is on record?
**A.** Its IC50 is 2830 nM.

**Q.** And the IC50 (human Gal-3 (hGal-3))?
**A.** The IC50 was 1220 nM.
